Assay results reported in article PMC11364845 (Scientific Reports, 2024).

How the values were obtained:
[1] = cited from earlier work
[2] = system: prostate tumor-bearing TRAMP mice; details: 30 min dynamic PET, n = 3/group

Time-dependent blood distribution by dynamic PET: JV versus RO injection [2]: consistent circulation
Structure (SMILES): OC[C@H]1OC(O)[C@H](F)[C@@H](O)[C@@H]1O (stereo partly drawn) [^18F-FDG, ^18F-fluorodeoxyglucose]
Time to peak in circulation and distribute to half its concentration ([1]; after cardiac administration): ≤ 5 s | Time to reach a plateau in tissues [1]: ≤ 30 min
